Results on 15 compounds are retold here after patent publication US20240294531A1, “COVALENT HETEROCYCLES AND USES THEREOF” (Kumquat Biosciences Inc., priority 2022, published 2024).

Experiment [1] in a line: Intrinsic reactivity assay. It counts as physicochemical. As to conditions: pH 7.4, 37° C., suitably protected Cys-OMe. The text has this:
Understanding of the intrinsic reactivity of electrophilic warheads with nucleophilic molecules is an important parameter influencing the stability of a compound in biological matrices. Lower intrinsic reactivity also mitigates the risk of covalent off-target reactivity. A common target residue for covalent drugs is cysteine, an amino acid containing a nucleophilic thiol side chain. The assay described here measures the rate of a compound forming a covalent bond with Boc-protected cysteine methyl ester or cysteine methyl ester that can be used as a surrogate for cysteines found on proteins.
Test compounds are prepared as 10 mM stock solutions in DMSO (Fisher cat #BP231-100). Compounds with molecular weight differing more than 3 Dalton are pooled and diluted to 5 μM in 100 mM potassium phosphate buffer, pH 7.4, containing 50 mM Boc-protected cysteine methyl ester (Combi-Blocks cat #QH-3424). Compounds incubated without Boc-protected cysteine methyl ester serve as controls. The reactions are incubated at 37° C., and reaction aliquots at different time intervals are sampled from the reaction and quenched with formic acid for subsequent LC-MS/MS analysis.
The LC-MS/MS analysis is done using a LC-40D×3 pump and SIL-40C×3 autosampler (Shimadzu) coupled to a QTRAP 6500+ (Sciex). Compounds are separated on a XBridge Premier BEH column (Waters). The sample run time is about 4 minutes per injection. The normalized peak area for each compound is extracted from the mass spectrometry raw files, and the data for each compound are plotted against time in Prism version 9.4 (GraphPad). Nonlinear regression using one-phase decay is used to estimate the rate of covalent bond formation with Boc-protected cysteine methyl ester or cysteine methyl ester and parent compound half-life (t½).

The target of experiment [2] is T1, BTK wildtype protein (Homo sapiens (Human), UniProt Q06187). Description: Kinact/KI determination for BTK protein inhibitors (Kobs). It counts as binding. As to the method: Test compounds were prepared as 10 mM stock solutions in DMSO (Fisher cat #BP231-100). Human recombinant BTK wildtype protein 393-659 or BTK C481S protein 393-659 was produced in house or purchased from Saromics Biostructures AB (Lund, Sweden). BTK protein was diluted to 1 μM in buffer (20 mM Hepes, pH 7.5, 150 mM NaCl, 1 mM MgCl2, 1 mM DTT). For testing BTK modification, compounds were diluted to 50× final test concentration in DMSO in 96-well storage plates. 1 μL of the diluted 50× compounds were added to appropriate wells in the PCR plate (Fisher cat #AB-0800). Increasing concentrations of compounds were added to separate wells, resulting in final assay compound concentrations of 3 μM, 10 μM, 30 μM and 100 μM. 49 μL of the stock protein solution was added to each well of the 96-well PCR plate. Reactions were mixed carefully. The plate was sealed well with aluminum plate seal and stored in a drawer at room temperature. After different incubation times, the reactions were quenched by adding 5 μL of 2% formic acid (Fisher cat #A117-50) in MilliQ H2O to each well followed by mixing with a pipette. The plate was then resealed with aluminum seal and stored until mass spectrometry analysis.
The extent of covalent modification of BTK proteins was determined by liquid chromatography electrospray mass spectrometry analysis of the intact proteins using a Thermo Q-Exactive Plus mass spectrometer. 20 μL of sample was injected onto a bioZen 3.6 μm Intact C4 column (Phenomenex cat #00B-4767-AN) placed in a column oven set to 40° C. and separated using a LC gradient from 20% to 60% solvent B. Solvent A was 0.1% formic acid and solvent B was 0.1% formic acid in acetonitrile. HESI source settings were set to 40, 5 and 1 for the sheath, auxiliary and sweep gas flow, respectively. The spray voltage was 4 kV, and the capillary temperature was 320° C. S-lens RF level was 50 and auxiliary gas heater temperature was set to 200° C. The mass spectrometry was acquired using a scan range from 650 to 1750 m/z using positive polarity at a mass resolution of 70,000, AGC target of 1e6 ions and maximum injection time of 250 ms. The recorded protein mass spectrum was deconvoluted from the raw data file using Protein Deconvolution v4.0 (Thermo). The protein mass, adduct masses and their corresponding peak intensities were exported to Excel (Microsoft). The peak intensities for the unmodified and modified protein were used to calculate the percent covalent modification of the BTK protein based on the following equation: % BTK protein modification=((BTK−compound)/(BTK)+(BTK−Compound))*100.
The Kinact/KI is a rate constant describing the efficiency of covalent bond formation resulting from the potency (KI) of the first reversible binding event and the maximum potential rate (Kinact) of inactivation. The percent […] protein modification was plotted as a function of time using Prism version 9.4.1 (GraphPad), and the observed rate of modification (Kobs), a first-order rate constant with units of inverse time, was estimated using nonlinear regression at each compound concentration. […] If Kobs is increasing with compound concentration, KI is higher than 3 μM. Kinact/KI can be estimated by plotting Kobs values against each compound concentration used in separate reactions. The Kobs values are fitted to determine Kinact and KI using the following equation, Kobs=(Kinact×[compound conc])/(KI+[compound conc]).
Target sequence in this assay (Q06187 393-659): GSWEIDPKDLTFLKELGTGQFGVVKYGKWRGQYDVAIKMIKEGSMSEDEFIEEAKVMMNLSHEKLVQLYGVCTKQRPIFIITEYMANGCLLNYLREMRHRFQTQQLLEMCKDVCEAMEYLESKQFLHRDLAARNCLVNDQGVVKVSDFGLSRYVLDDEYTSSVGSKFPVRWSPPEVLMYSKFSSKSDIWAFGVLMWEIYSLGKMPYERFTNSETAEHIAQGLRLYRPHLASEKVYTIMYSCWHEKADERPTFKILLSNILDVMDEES

In a further experiment the target is BTK C481S protein (Homo sapiens (Human), UniProt Q06187, C481S). As to the kind of experiment: BTK C481S HTRF displacement assay. It counts as binding. The note with it: 1-hour incubation. An outline of the steps:
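Tracer displacement read by HTRF after 1 hour at room temperature: GST-BTK C481S 2-659, 50 nM tracer 239 (Kd 54 nM), anti-GST antibody, compound in six four-fold doses from 5 μM. Percent inhibition versus DMSO fitted (bottom 0, top 100) for IC50, converted to KI via Cheng-Prusoff.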
(In TR-FRET formats the signal depends on donor and acceptor labels being close together.)

The target in experiment [3] is T1, BTK wildtype protein. Description: BTK wildtype HTRF displacement assay. Format: binding. As to conditions: 1-hour incubation; read-out: BTK (wt) IC50. An outline of the steps: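 Tracer-displacement HTRF format: compound and tracer 239 compete at the BTK active site, detected via anti-GST-Tb on GST-tagged full-length enzyme. One-hour room-temperature incubation; compounds dosed at six four-fold steps down from 5 μM. Percent inhibition versus DMSO gives IC50 by constrained four-parameter logistic fit.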
Target sequence in this assay (Q06187 2-659): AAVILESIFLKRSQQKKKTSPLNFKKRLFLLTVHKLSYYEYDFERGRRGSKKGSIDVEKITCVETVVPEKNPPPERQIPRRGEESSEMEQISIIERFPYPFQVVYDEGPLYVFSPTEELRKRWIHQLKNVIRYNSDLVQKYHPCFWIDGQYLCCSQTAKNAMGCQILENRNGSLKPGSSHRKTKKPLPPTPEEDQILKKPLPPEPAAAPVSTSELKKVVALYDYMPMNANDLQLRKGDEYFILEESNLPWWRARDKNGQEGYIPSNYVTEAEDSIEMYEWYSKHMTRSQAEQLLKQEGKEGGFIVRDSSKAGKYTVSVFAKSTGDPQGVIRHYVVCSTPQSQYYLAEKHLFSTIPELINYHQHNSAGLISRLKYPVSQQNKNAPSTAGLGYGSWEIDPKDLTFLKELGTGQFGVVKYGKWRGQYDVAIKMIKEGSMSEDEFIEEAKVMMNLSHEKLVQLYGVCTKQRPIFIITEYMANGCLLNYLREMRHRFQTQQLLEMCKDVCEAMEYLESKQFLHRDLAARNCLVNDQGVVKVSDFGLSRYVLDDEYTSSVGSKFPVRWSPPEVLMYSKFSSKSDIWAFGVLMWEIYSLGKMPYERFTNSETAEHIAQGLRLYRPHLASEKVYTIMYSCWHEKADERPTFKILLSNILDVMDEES

SMILES strings stand for the structures.

Chain of BTK C481S protein (Q06187 2-659 C481S): as the sequence (Q06187 2-659) above, with C480S counted along it

For `CCN(C(=O)n1cncn1)C1CC1`, the “K (min^−1), intrinsic rate constant” value in experiment [1] is under 0.0005 min⁻¹.
Regarding `CCN(CC)C(=O)n1cncn1`, in experiment [1], the “K (min^−1), intrinsic rate constant” value was under 0.0005 min⁻¹.
The same measure, in the same setting: for `CC1CCCCN1C(=O)n1cncn1` (stereo not drawn) the value was under 0.0005 min⁻¹; for `C=CC(=O)N(CC)C1CC1`, 0.0159 min⁻¹.
With `C=CC(=O)N(CC)CC`, the “K (min^−1), intrinsic rate constant” value in experiment [1] is 0.0012 min⁻¹.
As to `C=CC(=O)N1CCCCC1C` (stereo not drawn), the “K (min^−1), intrinsic rate constant” value in experiment [1] stood at 0.0029 min⁻¹.
As usually defined, the IC50 is the concentration that inhibits the measured activity by half. As to `COc1ccc(F)cc1C(=O)NCc1ccc(-c2nn(C(C)C3CCCCN3C(=O)n3cncn3)c(N)c2C(N)=O)cc1` (stereo not drawn) [Compound 249, 1-(1-(1-(1H-1,2,4-triazole-1-carbonyl)piperidin-2-yl)ethyl)-5-amino-3-(4-((5-fluoro-2-methoxybenzamido)methyl)phenyl)-1H-pyrazole-4-carboxamide], at BTK wildtype protein [2], the “BTK (wt) Kobs” value is on record as 248, 249, 250, 253, 254, 256, 259, 260, 261, 264, 265, M^−1 · s^−1. Moreover, the IC50 at BTK C481S protein and at BTK wildtype protein [3] was at most 1000 nM each time.
For `COc1ccc(F)cc1C(=O)NCc1ccc(-c2nn(C(C)C(C)N(C)C(=O)n3cncn3)c3ncnc(N)c23)cc1` (stereo not drawn) [Compound 250, N-(3-(4-amino-3-(4-((5-fluoro-2-methoxybenzamido)methyl)phenyl)-1H-pyrazolo[3,4-d]pyrimidin-1-yl)butan-2-yl)-N-methyl-1H-1,2,4-triazole-1-carboxamide], the “BTK (wt) Kobs” value at BTK wildtype protein [2] was 248, 249, 250, 253, 254, 256, 259, 260, 261, 264, 265, M^−1 · s^−1. The IC50 on BTK C481S protein and at BTK wildtype protein [3] was at most 1000 nM in each case.
Regarding `COc1ccc(F)cc1C(=O)NCc1ccc(-c2nn(C(CCCN(C)C(=O)n3cncn3)N(C)C)c3ncnc(N)c23)cc1` (stereo not drawn) [Compound 254, N-(4-(4-amino-3-(4-((5-fluoro-2-methoxybenzamido)methyl)phenyl)-1H-pyrazolo[3,4-d]pyrimidin-1-yl)-4-(dimethyl-amino)butyl)-N-methyl-1H-1,2,4-triazole-1-carboxamide], the “BTK (wt) Kobs” value on BTK wildtype protein [2] is on record as 248, 249, 250, 253, 254, 256, 259, 260, 261, 264, 265, M^−1 · s^−1. In addition, the IC50 at BTK C481S protein and on BTK wildtype protein [3] was over 1000 nM each time.
Consider `COc1ccc(F)cc1C(=O)NCc1ccc(-c2nn(C3CCCCN(C(=O)n4cncn4)C3)c(N)c2C(N)=O)cc1` (stereo not drawn) [Compound 256, 1-(1-(1H-1,2,4-triazole-1-carbonyl)azepan-3-yl)-5-amino-3-(4-((5-fluoro-2-methoxybenzamido)methyl)phenyl)-1H-pyrazole-4-carboxamide], for which the “BTK (wt) Kobs” value at BTK wildtype protein [2] was 248, 249, 250, 253, 254, 256, 259, 260, 261, 264, 265, M^−1 · s^−1. The IC50 on BTK C481S protein and at BTK wildtype protein [3] was at most 1000 nM in each case.
In the case of `COc1ccc(F)cc1C(=O)NCc1ccc(-c2nn(C[C@H](C(C)C)N(C)C(=O)n3cncn3)c3ncnc(N)c23)cc1` [Compound 259, (S)-N-(1-(4-amino-3-(4-((5-fluoro-2-methoxybenzamido)methyl)phenyl)-1H-pyrazolo[3,4-d]pyrimidin-1-yl)-3-methylbutan-2-yl)-N-methyl-1H-1,2,4-triazole-1-carboxamide], on BTK wildtype protein [2], the “BTK (wt) Kobs” value was 248, 249, 250, 253, 254, 256, 259, 260, 261, 264, 265, M^−1 · s^−1. Also, the IC50 on BTK C481S protein and at BTK wildtype protein [3] was over 1000 nM throughout.
With `COc1ccc(F)cc1C(=O)NCc1ccc(-c2nn(C3CCCC(CN(C)C(=O)n4cncn4)C3)c3ncnc(N)c23)cc1` (stereo not drawn) [Compound 260, N-((3-(4-amino-3-(4-((5-fluoro-2-methoxybenzamido)methyl)phenyl)-1H-pyrazolo[3,4-d]pyrimidin-1-yl)cyclohexyl)methyl)-N-methyl-1H-1,2,4-triazole-1-carboxamide], at BTK wildtype protein [2], the “BTK (wt) Kobs” value is reported as 248, 249, 250, 253, 254, 256, 259, 260, 261, 264, 265, M^−1 · s^−1. Moreover, the IC50 on BTK C481S protein and at BTK wildtype protein [3] was at most 1000 nM throughout.
Turning to `COCC(CN(C)C(=O)n1cncn1)n1nc(-c2ccc(CNC(=O)c3cc(F)ccc3OC)cc2)c2c(N)ncnc21` (stereo not drawn) [Compound 261, N-(2-(4-amino-3-(4-((5-fluoro-2-methoxybenzamido)methyl)phenyl)-1H-pyrazolo[3,4-d]pyrimidin-1-yl)-3-methoxypropyl)-N-methyl-1H-1,2,4-triazole-1-carboxamide], the “BTK (wt) Kobs” value on BTK wildtype protein [2] is recorded as 248, 249, 250, 253, 254, 256, 259, 260, 261, 264, 265, M^−1 · s^−1. Further, the IC50 on BTK C481S protein and at BTK wildtype protein [3] was over 1000 nM in each case.
For `COc1ccc(F)cc1C(=O)NCc1ccc(-c2nn(C[C@@H]3C[C@@H](C)CCN3C(=O)n3cnnc3)c(N)c2C(N)=O)cc1` [Compound 264, 5-amino-3-(4-((5-fluoro-2-methoxybenzamido)methyl)phenyl)-1-(((2S,4S)-4-methyl-1-(4H-1,2,4-triazole-4-carbonyl)piperidin-2-yl)methyl)-1H-pyrazole-4-carboxamide], the “BTK (wt) Kobs” value at BTK wildtype protein [2] is recorded as 248, 249, 250, 253, 254, 256, 259, 260, 261, 264, 265, M^−1 · s^−1. Moreover, the IC50 on BTK C481S protein and at BTK wildtype protein [3] was at most 1000 nM throughout.
With `CN(CCC1CNc2c(C(N)=O)c(-c3ccc(Oc4ccccc4)cc3)nn2C1)C(=O)n1cncn1` (stereo not drawn) [Compound 265, 6-(2-(N-methyl-1H-1,2,4-triazole-1-carboxamido)ethyl)-2-(4-phenoxy-phenyl)-4,5,6,7-tetrahydro-pyrazolo[1,5-a]pyrimidine-3-carboxamide], the “BTK (wt) Kobs” value at BTK wildtype protein [2] is 248, 249, 250, 253, 254, 256, 259, 260, 261, 264, 265, M^−1 · s^−1. Besides, the results for the IC50 at BTK C481S protein and at BTK wildtype protein [3] were at most 1000 nM and over 1000 nM, respectively.
